According to patent US12653798B2, “Fixed combination medicine for the control and management of neuropathic pain” (LABORATORIOS SILANES S.A. DE C.V., priority 2020, dated 2026):

How the values were obtained:
[1] = in vivo; cited from earlier work
[2] = Dissolution profile tests; type: physicochemical

Structure (SMILES): Cc1cnc(NC(=O)C2=C(O)c3ccccc3S(=O)(=O)N2C)s1 [Meloxicam]
- AUC [1]: 28.8 μ · h/mL
- Cmax [1]: 1620 ± 200 ng/mL
- tmax [1]: 3.0 to 6.0 h

Structure (SMILES): CC(C)Cc1ccc(C(C)C(=O)O)cc1 (centres unmarked) [Ibuprofen]
- AUC [1]: 70 μ · h/mL
- Bioavailability [1]: 80%
- Cmax [1]: 20000 ng/mL
- tmax [1]: 2 h

Structure (SMILES): Cc1ncc(CO)c(CO)c1O.Cl [pyridoxine hydrochloride]
- % dissolved ([2]; t 0 min): 0.00%
- % dissolved ([2]; t 10 min): 95.38%
- % dissolved ([2]; t 60 min): 90.54%

Structure (SMILES): O=C(c1ccccc1)c1ccc2n1CCC2C(=O)O (centres unmarked) [Ketorolac]
- AUC [1]: 4.81 μ · h/mL
- Bioavailability [1]: 80%
- Cmax [1]: 5420 ng/mL
- t1/2 [1]: 3.0 to 6.0 h
- tmax [1]: 0.33 to 1.0 h

Structure (SMILES): O=C(O)Cc1ccccc1Nc1c(Cl)cccc1Cl [Diclofenac]
- AUC [1]: 4.4 ± 0.08 μ · h/mL
- Bioavailability [1]: 50-60%
- Cmax [1]: 100 to 2200 ng/mL
- t1/2 [1]: 1.0 to 2.0 h
- tmax [1]: 1.98 h
